ChEMBL document CHEMBL1255519, “The synthesis of paleic acid, an antimicrobial agent effective against Mannheimia and Pasteurella, and its structurally related derivatives” (2010)
Values after ≈ are worked out from the molar mass of the structure shown.

Experiments:
Format in all cases: functional
Mannheimia haemolytica [1] = test: Antimicrobial activity against Mannheimia haemolytica N791 after 17 hrs by serial agar dilution method; settings: N791, 17 h
Mannheimia haemolytica [2] = test: Antimicrobial activity against Mannheimia haemolytica S801 after 17 hrs by serial agar dilution method
Pasteurella multocida [3] = test: Antimicrobial activity against Pasteurella multocida isolate 6 after 17 hrs by serial agar dilution method
Pasteurella multocida [4] = test: Antimicrobial activity against Pasteurella multocida Kobe after 17 hrs by serial agar dilution method
Pasteurella multocida [5] = test: Antimicrobial activity against Pasteurella multocida TS-8 after 17 hrs by serial agar dilution method
Pasteurella multocida [6] = test: Antimicrobial activity against Pasteurella multocida M-17 after 17 hrs by serial agar dilution method; settings: M-17, 17 h
[7] = test system: Actinobacillus pleuropneumoniae; test: Antimicrobial activity against Actinobacillus pleuropneumoniae NB001 after 17 hrs by serial agar dilution method
Histophilus somni = test: Antimicrobial activity against Histophilus somni 23N2359 after 17 hrs by serial agar dilution method; settings: 23N2359, 17 h
Mannheimia haemolytica [8] = test: Antimicrobial activity against Mannheimia haemolytica N811 after 17 hrs by serial agar dilution method
[9] = Mannheimia haemolytica, S801, 17 h, read-out: MIC
[10] = Pasteurella multocida, isolate 6, 17 h, read-out: MIC
[11] = Pasteurella multocida, TS-8, 17 h, read-out: MIC
[12] = Actinobacillus pleuropneumoniae, NB001, 17 h, read-out: MIC
[13] = Mannheimia haemolytica, N811, 17 h, read-out: MIC

SMILES | MIC (Pasteurella multocida [3]; [10]) [µg/mL] | MIC (Pasteurella multocida [4]) [µg/mL] | MIC (Pasteurella multocida [5]; [11]) [µg/mL] | MIC (Pasteurella multocida [6]) [µg/mL] | MIC [7, 12] [µg/mL] | MIC (Histophilus somni) [µg/mL] | MIC (Pasteurella multocida [3]) [µg/mL] | MIC (Pasteurella multocida [5]) [µg/mL] | MIC [7] [µg/mL] | MIC (Mannheimia haemolytica [1]) [µg/mL] | MIC (Mannheimia haemolytica [2]; [9]) [µg/mL] | MIC (Mannheimia haemolytica [8]; [13]) [µg/mL] | MIC (Mannheimia haemolytica [2]) [µg/mL] | MIC (Mannheimia haemolytica [8]) [µg/mL]
CCC(=O)CCCCC/C=C\CCCCCCCC(=O)O | 50 (≈ 169 µM) | > 50 | 50 (≈ 169 µM) | > 50 | 6.25 (≈ 21.1 µM) | > 50 |  |  |  | 3.13 (≈ 10.6 µM) | 6.25 (≈ 21.1 µM) | 6.25 (≈ 21.1 µM) |  | 
CCC1(CCCCC/C=C\CCCCCCCC(=O)O)OCCO1 | > 50 | 50 (≈ 147 µM) | 25 (≈ 73.4 µM) | > 50 | > 100 | > 50 |  |  |  | 25 (≈ 73.4 µM) | 25 (≈ 73.4 µM) | 25 (≈ 73.4 µM) |  | 
CC/C(CCCCC/C=C\CCCCCCCC(=O)O)=N/O | 3.13 (≈ 10 µM) | > 50 | 25 (≈ 80.3 µM) | > 50 | 6.25 (≈ 20.1 µM) | > 50 |  |  |  | 1.56 (≈ 5.01 µM) | 1.56 (≈ 5.01 µM) | 1.56 (≈ 5.01 µM) |  | 
CC[C@@H](O)CCCCC/C=C\CCCCCCCC(=O)NS(C)(=O)=O | 50 (≈ 133 µM) | > 50 | 25 (≈ 66.6 µM) | > 50 | > 50 | > 50 |  |  |  | 50 (≈ 133 µM) | 25 (≈ 66.6 µM) | 50 (≈ 133 µM) |  | 
CC[C@@H](O)CCCCC/C=C\CCCCCCCc1nnn[nH]1 | 50 (≈ 155 µM) | 50 (≈ 155 µM) | 50 (≈ 155 µM) | 50 (≈ 155 µM) | 50 (≈ 155 µM) | 50 (≈ 155 µM) |  |  |  | 50 (≈ 155 µM) | 50 (≈ 155 µM) | 50 (≈ 155 µM) |  | 

Now from value to compound, other results behind:

MIC (Pasteurella multocida [3]; [10]) [µg/mL] | MIC (Pasteurella multocida [4]) [µg/mL] | MIC (Pasteurella multocida [5]; [11]) [µg/mL] | MIC (Pasteurella multocida [6]) [µg/mL] | MIC [7, 12] [µg/mL] | MIC (Histophilus somni) [µg/mL] | MIC (Pasteurella multocida [3]) [µg/mL] | MIC (Pasteurella multocida [5]) [µg/mL] | MIC [7] [µg/mL] | SMILES | MIC (Mannheimia haemolytica [1]) [µg/mL] | MIC (Mannheimia haemolytica [2]; [9]) [µg/mL] | MIC (Mannheimia haemolytica [8]; [13]) [µg/mL] | MIC (Mannheimia haemolytica [2]) [µg/mL] | MIC (Mannheimia haemolytica [8]) [µg/mL]
> 50 | > 50 | 50 (≈ 168 µM) | > 50 | > 50 | > 50 |  |  |  | CC[C@@H](O)CCCCC/C=C\CCCCCCCC(N)=O | 25 (≈ 84 µM) | 50 (≈ 168 µM) | 12.5 (≈ 42 µM) |  | 
50 (≈ 168 µM) | > 50 | 6.25 (≈ 20.9 µM) | > 50 | 12.5 (≈ 41.9 µM) | > 50 |  |  |  | CC[C@H](O)CCCCC/C=C\CCCCCCCC(=O)O | 0.78 (≈ 2.61 µM) | 0.39 (≈ 1.31 µM) | 0.78 (≈ 2.61 µM) |  | 
12.5 (≈ 39.9 µM) | > 50 | 50 (≈ 159 µM) | > 50 | 50 (≈ 159 µM) | > 50 |  |  |  | CC[C@@H](O)CCCCC/C=C\CCCCCCCC(=O)NO | 25 (≈ 79.7 µM) | 50 (≈ 159 µM) | 25 (≈ 79.7 µM) |  | 
6.25 (≈ 20.9 µM) | > 50 | 3.13 (≈ 10.5 µM) | > 50 | 6.25 (≈ 20.9 µM) | > 50 |  |  |  | CC[C@@H](O)CCCCC/C=C\CCCCCCCC(=O)O (stereo in doubt; 1) [PALEIC ACID] | 0.78 (≈ 2.61 µM) | 1.56 (≈ 5.23 µM) | 1.56 (≈ 5.23 µM) |  | 
 |  |  |  |  |  | 12.5 (≈ 41.9 µM) | 6.25 (≈ 20.9 µM) | 6.25 (≈ 20.9 µM) | CC[C@@H](O)CCCCC/C=C\CCCCCCCC(=O)O (stereo in doubt; 2) [PALEIC ACID] |  |  |  | 0.78 (≈ 2.61 µM) | 0.78 (≈ 2.61 µM)
